For the data set, the system named is CCRIS mutagenicity, Ames/micronucleus/aberration tests. In words: CCRIS mutagenicity studies.
[1] abbreviates: Test System: AMES SALMONELLA TYPHIMURIUM, Strain/Indicator: TA98, Metabolic Activation: NONE, Method: PREINCUBATION
[2] abbreviates: Test System: AMES SALMONELLA TYPHIMURIUM, Strain/Indicator: TA100, Metabolic Activation: NONE, Method: PREINCUBATION
The mark [3] stands for this setting: Test System: AMES SALMONELLA TYPHIMURIUM, Strain/Indicator: TA100, Metabolic Activation: NONE, Method: STANDARD PLATE.
[4] abbreviates: Test System: AMES SALMONELLA TYPHIMURIUM, Strain/Indicator: TA100, Metabolic Activation: RAT, LIVER, S-9, AROCLOR 1254, Method: STANDARD PLATE.
[5] abbreviates: Test System: AMES SALMONELLA TYPHIMURIUM, Strain/Indicator: TA102, Metabolic Activation: NONE, Method: PREINCUBATION
Where [6] appears, read: Test System: AMES SALMONELLA TYPHIMURIUM, Strain/Indicator: TA102, Metabolic Activation: NONE, Method: STANDARD PLATE.
Where [7] appears, read: Test System: AMES SALMONELLA TYPHIMURIUM, Strain/Indicator: TA104, Metabolic Activation: NONE, Method: PREINCUBATION
[8] abbreviates: Test System: AMES SALMONELLA TYPHIMURIUM, Strain/Indicator: TA98, Metabolic Activation: NONE, Method: STANDARD PLATE.

The source made the active and inactive calls. How the calls were made is not given here.

Consider `CN(C)N`, for which the mutagenic call (End Point: IN VITRO CHROMOSOMAL ABERRATIONS, Test System: CHL CELLS, Metabolic Activation: NONE) was “active; positive (structural changes)”; the mutagenic call (End Point: IN VITRO CHROMOSOMAL ABERRATIONS, Test System: CHL CELLS, Metabolic Activation: RAT, LIVER, S-9, SODIUM PHENOBARBITAL AND 5,6-BENZOFLAVONE) was “active; positive (structural changes)”; the mutagenic call under setting [1] was “inactive; negative”; the mutagenic call (Test System: AMES SALMONELLA TYPHIMURIUM, Strain/Indicator: TA98, Metabolic Activation: RAT LIVER S-9, PHENOBARBITAL AND BETA-NAPHTHOFLAVONE, Method: PREINCUBATION) is “inactive; negative”; the mutagenic call under setting [2] was “inactive; negative”; the mutagenic call under setting [3] is “inactive; negative”. Besides, the mutagenic call was “inactive; negative” (Test System: AMES SALMONELLA TYPHIMURIUM, Strain/Indicator: TA100, Metabolic Activation: RAT LIVER S-9, PHENOBARBITAL AND BETA-NAPHTHOFLAVONE, Method: PREINCUBATION); “inactive; negative” (Test System: AMES SALMONELLA TYPHIMURIUM, Strain/Indicator: TA100, Metabolic Activation: RAT, LIVER, S-9, AROCLOR 1254 (1 OR 2 MG), Method: STANDARD PLATE); “inactive; negative” under setting [4]; “inactive; negative” under setting [5]; “inactive; negative” under setting [6]; “inactive; negative” (Test System: AMES SALMONELLA TYPHIMURIUM, Strain/Indicator: TA102, Metabolic Activation: RAT LIVER S-9, PHENOBARBITAL AND BETA-NAPHTHOFLAVONE, Method: PREINCUBATION). Also, the mutagenic call by setting is: (Test System: AMES SALMONELLA TYPHIMURIUM, Strain/Indicator: TA102, Metabolic Activation: RAT, LIVER, S-9, AROCLOR 1254 (1 OR 2 MG), Method: STANDARD PLATE) “inactive; negative”; (Test System: AMES SALMONELLA TYPHIMURIUM, Strain/Indicator: TA102, Metabolic Activation: RAT, LIVER, S-9, AROCLOR 1254, Method: STANDARD PLATE) “inactive; negative”; under setting [7], “inactive; negative”; (Test System: AMES SALMONELLA TYPHIMURIUM, Strain/Indicator: TA104, Metabolic Activation: RAT LIVER S-9, PHENOBARBITAL AND BETA-NAPHTHOFLAVONE, Method: PREINCUBATION) “inactive; negative”; (Test System: AMES SALMONELLA TYPHIMURIUM, Strain/Indicator: TA1530, Metabolic Activation: NONE, Method: STANDARD PLATE) “active; positive”; (Test System: AMES SALMONELLA TYPHIMURIUM, Strain/Indicator: TA1535, Metabolic Activation: NONE, Method: PREINCUBATION) “inactive; negative”. In addition, the mutagenic call (Test System: AMES SALMONELLA TYPHIMURIUM, Strain/Indicator: TA1535, Metabolic Activation: RAT LIVER S-9, PHENOBARBITAL AND BETA-NAPHTHOFLAVONE, Method: PREINCUBATION) is “inactive; negative”; the mutagenic call (Test System: AMES SALMONELLA TYPHIMURIUM, Strain/Indicator: TA1535, Metabolic Activation: RAT, LIVER, S-9, AROCLOR 1254, Method: PREINCUBATION) is “inactive; negative”; the mutagenic call (Test System: AMES SALMONELLA TYPHIMURIUM, Strain/Indicator: TA1537, Metabolic Activation: RAT LIVER S-9, PHENOBARBITAL AND BETA-NAPHTHOFLAVONE, Method: PREINCUBATION) is “inactive; negative”; the mutagenic call (Test System: AMES SALMONELLA TYPHIMURIUM, Strain/Indicator: TA1537, Metabolic Activation: RAT, LIVER, S-9, AROCLOR 1254, Method: PREINCUBATION) was “inactive; negative”; the mutagenic call (Test System: AMES SALMONELLA TYPHIMURIUM, Strain/Indicator: TA2638, Metabolic Activation: NONE, Method: STANDARD PLATE) is “active; positive”; the mutagenic call (Test System: E. COLI, Strain/Indicator: WP2 (PKM101), Metabolic Activation: NONE, Method: STANDARD PLATE) was “active; positive”. The mutagenic call runs as follows: (Test System: E. COLI, Strain/Indicator: WP2 UVRA (PKM101), Metabolic Activation: NONE, Method: STANDARD PLATE) “active; positive”; (Test System: E.COLI, Strain/Indicator: WP2UVRA/PKM101, Metabolic Activation: NONE, Method: PREINCUBATION) “inactive; negative”; (Test System: E.COLI, Strain/Indicator: WP2UVRA/PKM101, Metabolic Activation: RAT LIVER S-9, PHENOBARBITAL AND BETA-NAPHTHOFLAVONE, Method: PREINCUBATION) “inactive; negative”; (Test System: E.COLI, Strain/Indicator: WP2UVRA, Metabolic Activation: NONE, Method: PREINCUBATION) “inactive; negative”; (Test System: E.COLI, Strain/Indicator: WP2UVRA, Metabolic Activation: RAT LIVER S-9, PHENOBARBITAL AND BETA-NAPHTHOFLAVONE, Method: PREINCUBATION) “inactive; negative”.

For `N#CC1=C(C#N)C(=O)C(Cl)=C(Cl)C1=O`, the mutagenic call under setting [1] is “inactive; negative”; the mutagenic call (Test System: AMES SALMONELLA TYPHIMURIUM, Strain/Indicator: TA98, Metabolic Activation: RAT, LIVER, S-9, PHENOBARBITAL AND 5,6-BENZOFLAVONE, Method: PREINCUBATION) was “inactive; negative”; the mutagenic call under setting [2] is “inactive; negative”; the mutagenic call under setting [5] was “inactive; negative”; the mutagenic call (Test System: AMES SALMONELLA TYPHIMURIUM, Strain/Indicator: TA102, Metabolic Activation: RAT, LIVER, S-9, PHENOBARBITAL AND 5,6-BENZOFLAVONE, Method: PREINCUBATION) was “inactive; negative”; the mutagenic call under setting [7] is “active; positive”. For the same compound, the mutagenic call (Test System: AMES SALMONELLA TYPHIMURIUM, Strain/Indicator: TA104, Metabolic Activation: RAT, LIVER, S-9, PHENOBARBITAL AND 5,6-BENZOFLAVONE, Method: PREINCUBATION) is “active; positive”; the mutagenic call (Test System: AMES SALMONELLA TYPHIMURIUM, Strain/Indicator: TA2637, Metabolic Activation: NONE, Method: PREINCUBATION) is “inactive; negative”; the mutagenic call (Test System: AMES SALMONELLA TYPHIMURIUM, Strain/Indicator: TA2637, Metabolic Activation: RAT, LIVER, S-9, PHENOBARBITAL AND 5,6-BENZOFLAVONE, Method: PREINCUBATION) is “active; positive”.

Turning to `COP(=S)(NC(C)C)Oc1ccccc1C(=O)OC(C)C` (stereo unspecified), the mutagenic call by setting is: under setting [8], “inactive; negative”; (Test System: AMES SALMONELLA TYPHIMURIUM, Strain/Indicator: TA98, Metabolic Activation: RAT, LIVER, S-9, PCB, Method: STANDARD PLATE) “inactive; negative”; under setting [3], “inactive; negative”; (Test System: AMES SALMONELLA TYPHIMURIUM, Strain/Indicator: TA100, Metabolic Activation: RAT, LIVER, S-9, PCB, Method: STANDARD PLATE) “inactive; negative”.

In the case of `COC1=CC(=O)c2c(nc(C)c3c2[nH]c2ccncc23)C1=O`, the mutagenic call is, setting by setting: (Test System: AMES SALMONELLA TYPHIMURIUM, Strain/Indicator: TA97A, Metabolic Activation: NONE, Method: STANDARD PLATE) “active; positive”; (Test System: AMES SALMONELLA TYPHIMURIUM, Strain/Indicator: TA97A, Metabolic Activation: RAT LIVER S-9, AROCLOR 1254, Method: STANDARD PLATE) “inactive; negative”; under setting [8], “active; positive”; (Test System: AMES SALMONELLA TYPHIMURIUM, Strain/Indicator: TA98, Metabolic Activation: RAT LIVER S-9, AROCLOR 1254, Method: STANDARD PLATE) “active; positive”; under setting [3], “active; positive”; (Test System: AMES SALMONELLA TYPHIMURIUM, Strain/Indicator: TA100, Metabolic Activation: RAT LIVER S-9, AROCLOR 1254, Method: STANDARD PLATE) “active; positive”. Further, the mutagenic call was “active; positive” under setting [6] and “active; positive” (Test System: AMES SALMONELLA TYPHIMURIUM, Strain/Indicator: TA102, Metabolic Activation: RAT LIVER S-9, AROCLOR 1254, Method: STANDARD PLATE).

Take `O=C(/C=C/c1ccccc1)c1ccccc1`: the mutagenic call is “inactive; negative” under setting [8]; “inactive; negative” (Test System: AMES SALMONELLA TYPHIMURIUM, Strain/Indicator: TA98, Metabolic Activation: RAT, LIVER, S-9, AROCLOR 1254, Method: STANDARD PLATE); “inactive; negative” under setting [2]; “inactive; negative” under setting [3]; “inactive; negative” (Test System: AMES SALMONELLA TYPHIMURIUM, Strain/Indicator: TA100, Metabolic Activation: RAT, LIVER, S-9, AROCLOR 1254, Method: PREINCUBATION); “inactive; negative” under setting [4].

The values are drawn from PubChem BioAssay AID1259407 (Chemical Carcinogenesis Research Information System (CCRIS), 2018).
